Values joined by “and” are separate entries in the source; they are usually repeats but may differ in a detail not shown here. Identical values can stand only once. ± gives the uncertainty stated by the source.
Key:
[1] = xn = mol fraction of the nth substance listed; settings: 101 kPa

C=C(C)C(=O)OCCCCCCC
101 kPa
Settings	viscosity [mPa·s]
303 K	1.516 ± 0.029
313 K	1.275 ± 0.021
323 K	1.105 ± 0.015

CC(C)CCCC(C)CCCC(C)CCCC(C)C (stereo not given)
Settings	viscosity [mPa·s]
298.15 K, 101.33 kPa	5.479 ± 0.066

CC(C)CCCC(C)CCCC(C)CCCCC(C)CCCC(C)CCCC(C)C (stereo not given)
100 kPa
Settings	viscosity [mPa·s]
293.15 K	35.3 ± 2.2
313.15 K	15.4 ± 0.9

CC(F)F
101 kPa
Settings	viscosity [mPa·s]
293.35 K	0.172 ± 0.0047
294.75 K	0.177 ± 0.0049
313.35 K	0.1402 ± 0.0038
314.25 K	0.1409 ± 0.0038

CC(O)C(C)O (stereo not given)
viscosity [mPa·s]
Settings	308.15 K	313.15 K	318.15 K	323.15 K
101 kPa	–	–	–	16.98 ± 1
101.3 kPa	57.11 ± 0.39	39.26 ± 0.38	27.62 ± 0.27	–

CCCCCCCCCCCCO
Settings	viscosity [mPa·s]
303.15 K, 101.33 kPa	12.95 ± 0.12

CCCCCCCCCCCCOS(=O)(=O)[O-].CCCCn1cc[n+](C)c1
Settings	viscosity [mPa·s]
303.15 K, 101 kPa	1.32e+07 ± 4.3e+06

CCCCCCCCN
viscosity
Settings	303.15 K	308.15 K	313.15 K
101 kPa	1.169 ± 0.023 mPa·s and 1.169 ± 0.013 mPa·s and 1.165 ± 0.0096 mPa·s	0.9267 ± 0.095 mPa·s and 0.9267 ± 0.012 mPa·s	0.9864 ± 0.0085 mPa·s
101.33 kPa	1.165 ± 0.0096 mPa·s	–	0.9864 ± 0.0085 mPa·s

CCOC(=O)c1ccccc1C(=O)OCC
Settings	viscosity [mPa·s]
313.15 K, 101.33 kPa	6.3 ± 0.063

CCc1cccc(CC)c1
102 kPa
Settings	viscosity [mPa·s]
293.15 K	0.852 ± 0.023
303.15 K	0.751 ± 0.022
313.15 K	0.668 ± 0.022
323.15 K	0.598 ± 0.022

COC(=O)OCC(F)(F)F
100 kPa
Settings	viscosity [mPa·s]
298.15 K	1 ± 0.022
313.15 K	0.74 ± 0.016

Cc1ccc(C)cc1
Settings	viscosity
293.15 K, 101 kPa	0.5756 ± 0.0088 mPa·s and 0.6402 ± 0.017 mPa·s and 0.6388 ± 0.0058 mPa·s
293.15 K, 101.2 kPa	0.6517 ± 0.029 mPa·s
293.15 K, 101.3 kPa	0.6332 ± 0.017 mPa·s and 0.6589 ± 0.04 mPa·s
298 K, 101.3 kPa	0.615 ± 0.008 mPa·s
298.15 K, 100 kPa	0.6118 ± 0.073 mPa·s
298.15 K, 101.2 kPa	0.6083 ± 0.027 mPa·s
303.15 K, 101.2 kPa	0.5753 ± 0.026 mPa·s
303.15 K, 101.3 kPa	0.5702 ± 0.0041 mPa·s
303.15 K, 101.32 kPa	0.564 ± 0.015 mPa·s
303.15 K, 101.33 kPa	0.5694 ± 0.015 mPa·s and 0.519 ± 0.008 mPa·s and 0.57 ± 0.004 mPa·s
307.35 K, 101.33 kPa	0.539 ± 0.0095 mPa·s
308.15 K, 100 kPa	0.5508 ± 0.066 mPa·s
308.15 K, 101.2 kPa	0.5364 ± 0.024 mPa·s
308.15 K, 101.3 kPa	0.5381 ± 0.0039 mPa·s
313.15 K, 101.2 kPa	0.5094 ± 0.023 mPa·s
313.15 K, 101.3 kPa	0.5309 ± 0.014 mPa·s and 0.5117 ± 0.031 mPa·s and 0.5086 ± 0.0037 mPa·s
313.15 K, 101.33 kPa	0.5064 ± 0.014 mPa·s
318 K, 101.3 kPa	0.4919 ± 0.019 mPa·s
318.15 K, 101 kPa	0.4925 ± 0.014 mPa·s and 0.462 ± 0.01 mPa·s and 0.483 ± 0.013 mPa·s
318.15 K, 101.2 kPa	0.5049 ± 0.023 mPa·s
318.15 K, 101.3 kPa	0.4817 ± 0.0036 mPa·s
323.15 K, 101.3 kPa	0.4738 ± 0.013 mPa·s and 0.4571 ± 0.028 mPa·s

Fc1ccccc1
101 kPa
Settings	viscosity
303.15 K	0.514 ± 0.011 mPa·s and 0.523 ± 0.019 mPa·s and 0.523 ± 0.011 mPa·s
308.15 K	0.495 ± 0.018 mPa·s and 0.495 ± 0.01 mPa·s
313.15 K	0.46 ± 0.011 mPa·s and 0.467 ± 0.017 mPa·s and 0.467 ± 0.01 mPa·s

NCCO.O=CO
viscosity
Settings	293.15 K	298.15 K	303.15 K	308.15 K	313.15 K	318.15 K	323.15 K
100 kPa	–	79.13 ± 8.1 mPa·s and 79.13 ± 32 mPa·s	63.01 ± 6.4 mPa·s and 63.01 ± 25 mPa·s	51.79 ± 5.2 mPa·s and 51.79 ± 21 mPa·s	43.03 ± 4.4 mPa·s and 43.03 ± 17 mPa·s	36.34 ± 3.7 mPa·s and 36.34 ± 15 mPa·s	30.76 ± 3.1 mPa·s and 30.76 ± 12 mPa·s
101 kPa	268.9 ± 21 mPa·s	198.1 ± 16 mPa·s	149.5 ± 11 mPa·s	115.4 ± 8.3 mPa·s	91 ± 6.2 mPa·s	72.85 ± 4.8 mPa·s	58.64 ± 3.8 mPa·s

O=C(O)C(Cl)Cl
101 kPa
Settings	viscosity [mPa·s]
308.15 K	4.779 ± 0.2
323.15 K	3.243 ± 0.14

O=Cc1ccccc1
viscosity
Settings	293.15 K	298.1 K	298.15 K	303.15 K	308.15 K	313.15 K	318.15 K	323.15 K
100 kPa	1.495 ± 0.036 mPa·s	–	–	–	–	–	–	–
101 kPa	–	1.37 ± 0.032 mPa·s	1.392 ± 0.033 mPa·s	1.26 ± 0.0099 mPa·s	1.215 ± 0.033 mPa·s	–	0.9051 ± 0.091 mPa·s and 1.051 ± 0.028 mPa·s	0.975 ± 0.026 mPa·s
101.33 kPa	1.397 ± 0.19 mPa·s	–	1.445 ± 0.012 mPa·s and 1.321 ± 0.012 mPa·s and 1.385 ± 0.013 mPa·s	1.278 ± 0.18 mPa·s	1.13 ± 0.014 mPa·s and 1.178 ± 0.011 mPa·s	1.17 ± 0.17 mPa·s	1.034 ± 0.01 mPa·s	1.072 ± 0.17 mPa·s

OCCOCCO
viscosity
Settings	293.15 K	298.1 K	298.15 K	308.15 K	313.15 K
101 kPa	38.82 ± 0.25 mPa·s and 38.82 ± 0.42 mPa·s and 38.82 ± 0.19 mPa·s (2×)	27.87 ± 2.3 mPa·s	27.15 ± 1.1 mPa·s and 27.14 ± 1.1 mPa·s	17.26 ± 0.7 mPa·s	14.81 ± 0.6 mPa·s
101.32 kPa	33.6 ± 2.3 mPa·s	–	–	–	12.8 ± 0.88 mPa·s
101.33 kPa	–	–	26.81 ± 0.46 mPa·s	–	–

[Br-].[Br-].[Br-].[Br-].[Sn+4]
101 kPa
Settings	viscosity
313.15 K	1.97 ± 0.07 mPa·s and 2.101 ± 0.055 mPa·s
323.15 K	1.78 ± 0.07 mPa·s

[Cl-].[Cl-].[Cl-].[Cl-].[Ge+4]
101 kPa
Settings	viscosity [mPa·s]
293.15 K	0.599 ± 0.015
298.15 K	0.589 ± 0.015
303.15 K	0.561 ± 0.014
313.15 K	0.516 ± 0.013

c1ccc(Nc2ccccc2)cc1
Settings	viscosity [mPa·s]
323.15 K, 101 kPa	5.95 ± 0.35

c1ccsc1
viscosity
Settings	293.15 K	298.15 K	303.15 K	308.15 K	313.15 K	318.15 K	323.15 K
100 kPa	–	0.655 ± 0.094 mPa·s	–	0.585 ± 0.091 mPa·s	–	0.525 ± 0.088 mPa·s	–
101 kPa	0.653 ± 0.065 mPa·s	0.62 ± 0.01 mPa·s and 0.615 ± 0.062 mPa·s	0.58 ± 0.058 mPa·s	0.54 ± 0.01 mPa·s and 0.545 ± 0.055 mPa·s	0.518 ± 0.052 mPa·s	0.48 ± 0.01 mPa·s and 0.491 ± 0.049 mPa·s	0.464 ± 0.047 mPa·s

C=C(C)C(=O)OCCCCCCC + c1ccccc1
viscosity [mPa·s], [1]
Settings	x1 = 0.002	x1 = 0.004	x1 = 0.01	x1 = 0.02
303 K	0.5525 ± 0.0033	0.5621 ± 0.0034	0.5849 ± 0.0037	0.5828 ± 0.0036
313 K	0.4874 ± 0.0033	0.4915 ± 0.0033	0.5123 ± 0.0029	0.5115 ± 0.0029
323 K	0.4321 ± 0.0029	0.4362 ± 0.0029	0.4518 ± 0.003	0.4535 ± 0.003

CCCCCCCCN + c1ccccc1
[1], 303.15 K
Settings	viscosity [mPa·s]
x2 = 0.1044	1.099 ± 0.012
x2 = 0.3007	0.9459 ± 0.01
x2 = 0.498	0.7915 ± 0.0088
x2 = 0.597	0.7318 ± 0.0082
x2 = 0.6967	0.6798 ± 0.0076
x2 = 0.7998	0.6239 ± 0.007
x2 = 0.899	0.5891 ± 0.0066

O=Cc1ccccc1 + c1ccccc1
viscosity [mPa·s], [1]
Settings	x1 = 0.1	x1 = 0.2	x1 = 0.4	x1 = 0.5	x1 = 0.6
298.15 K	0.655 ± 0.018	0.714 ± 0.019	0.847 ± 0.023	0.928 ± 0.025	1.012 ± 0.027
308.15 K	0.583 ± 0.016	0.625 ± 0.017	0.742 ± 0.02	0.809 ± 0.022	0.885 ± 0.024
318.15 K	0.509 ± 0.014	0.551 ± 0.015	0.667 ± 0.018	0.711 ± 0.019	0.773 ± 0.021
323.15 K	0.477 ± 0.013	0.517 ± 0.014	–	0.665 ± 0.018	0.724 ± 0.02

— the CheMixHub viscosity set
